Assay results as given in ChEMBL document CHEMBL5608206, “Exploring monocyclic core: Discovery of pyrrol-2-one derivatives as a new series of potent MCHR1 antagonists with in vivo efficacy” (Eur J Med Chem, 2024).

Legend:
[1] = physchem
[2] = in vitro; settings: mouse, liver microsomes
[3] = in vitro; settings: rat, liver microsomes
[4] = in vitro; settings: human, liver microsomes

logP [1]: 3.3 | remaining at 10 min, 3 µM [2]: 74% | remaining at 10 min, 3 µM [3]: 71% | remaining at 10 min, 3 µM [4]: 87%
Structure (SMILES): COc1cc(N2CC=C(Oc3ccc(C4CC4)cc3)C2=O)ccc1OCCO
